Measured values as given in paper PMC5054302 (Molecular and biochemical parasitology, 2011).
Where two headings read alike, the source gives them in different places.

Assays:
[1] = test system: P. falciparum TM90C2B (C2B isolates, Y268S cytochrome b); assay: Radio-labeled hypoxanthine growth assay, atovaquone-resistant C2B isolates; assay type: cell-based, Plasmodium falciparum
[2] = test system: P. berghei liver stages; assay: microbe, parasite or virus in culture; assay type: cell-based, Plasmodium berghei; conditions: for Selectivity index: IC50 against hepatocytes divided by IC50 for P. berghei liver stage development
[3] = test system: HepG2 cells; assay: cells; assay type: cell-based, human; conditions: read-out: Hepatocyte counterscreen
[4] = test system: cytochrome bc1 complex, L275F yeast cytochrome b mutant; assay type: biochemical, Saccharomyces cerevisiae; conditions: IC50 against L275F mutant enzyme divided by IC50 of wild-type enzyme
[5] = test system: cytochrome bc1 complex, M139L yeast cytochrome b mutant; assay type: biochemical, Saccharomyces cerevisiae; conditions: IC50 against M139L mutant enzyme divided by IC50 of wild-type enzyme
[6] = molecular target: cytochrome bc1 complex, Y279S yeast cytochrome b mutant (Saccharomyces cerevisiae, UniProt P00163+P08067, Y279S); assay type: biochemical

Compound `O=C1C(O)=C([C@H]2CC[C@H](c3ccc(Cl)cc3)CC2)C(=O)c2ccccc21` [Atovaquone, reference compound] has an IC50 [1] of 6.6 to 7.1 µM, an IC50 ([2]; Plasmodium berghei, HepG2, 48 h, read-out: IC50 against P. berghei) of 19.7 nM and an IC50 ([3]; Homo sapiens, HepG2, 48 h) of 38.4 µM.
`CC(CCCCCC(F)(F)F)CC1=C(O)C(=O)c2ccccc2C1=O` (stereo not shown) [NQ1, 2-OH-3-(2-methyl-trifluorooctyl)-naphthoquinone] was tested, and the Selectivity index [2] was 399, the IC50 ([3]; MTT, HepG2 cells alone, 48 h) was 6.83 µM and the Relative efficacy [4] was less than 1.0. It also gave a Relative efficacy [5] of less than 1.0.
`CCCCCCC(C)CC1=C(O)C(=O)c2c(C)cccc2C1=O` (stereo not shown) [NQ2, 2-OH-3-(2-methyl-octyl)-8-methyl-naphthoquinone] gave a Selectivity index [2] of 10.1, an IC50 ([3]; MTT, HepG2 cells alone, 48 h) of 2.48 µM and a Relative efficacy ([6]; IC50 against Y279S mutant enzyme divided by IC50 of wild-type enzyme) of 0.37. The “Extent of inhibition of Y279S enzyme activity” value ([6]; at 500 nM, biphasic titration) was “did not reach complete inhibition”.
`Cc1cccc2c1C(=O)C(O)=C(CC(C)CCCCCC(F)(F)F)C2=O` (stereo not shown) [NQ3, 2-OH-3-(2-methyl-trifluorooctyl)-8-methyl-naphthoquinone] showed an IC50 ([3]; MTT, HepG2 cells alone, 48 h) greater than 54.3 µM.
For `CCCCCCC(C)CC1=C(O)C(=O)c2ccccc2C1=O` (stereo not shown) [S-10576, reference compound], the IC50 ([3]; MTT, HepG2 cells alone, 48 h) was greater than 66.6 µM.
